Measurements as given in patent publication US20190231751A1, “TREATMENT OF FIBROTIC DISORDERS WITH JUN N-TERMINAL KINASE INHIBITORS” (Imago Pharmaceuticals, Inc., priority 2016, published 2019).

Experiments:
Type in all cases: biochemical
[1] = biological target: JNK1 (Homo sapiens, UniProt P45983); assay: In vitro JNK1 inhibition (Table 1)
Method: (§1) In vitro assays for the determination of JNK activities are known in the art and exemplary assay formats are described herein.
(§2) IC50 values in Table 1 were determined using the procedures as described in U.S. Pat. No. 8,450,353.

[2] = biological target: JNK3 (Homo sapiens, UniProt P53779); assay: In vitro JNK3 inhibition (Table 1)
Method: as §1, §2

[3] = biological target: JNK2 (Homo sapiens, UniProt P45984); assay: In vitro JNK2 inhibition (Table 1)
Method: as §1, §2

JNK3, sequence (P53779 whole entry, species assumed): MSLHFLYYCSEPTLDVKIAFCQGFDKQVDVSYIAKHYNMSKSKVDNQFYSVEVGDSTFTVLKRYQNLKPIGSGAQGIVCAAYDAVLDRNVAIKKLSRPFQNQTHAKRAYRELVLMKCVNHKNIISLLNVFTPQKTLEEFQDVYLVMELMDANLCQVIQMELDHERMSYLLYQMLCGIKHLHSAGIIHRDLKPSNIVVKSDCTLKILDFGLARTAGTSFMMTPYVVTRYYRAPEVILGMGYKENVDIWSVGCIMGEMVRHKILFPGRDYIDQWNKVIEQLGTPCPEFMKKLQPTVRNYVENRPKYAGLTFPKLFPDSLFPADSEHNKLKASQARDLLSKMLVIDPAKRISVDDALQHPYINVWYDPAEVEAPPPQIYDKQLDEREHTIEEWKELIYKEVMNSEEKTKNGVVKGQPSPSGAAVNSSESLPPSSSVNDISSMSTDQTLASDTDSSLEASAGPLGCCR
JNK1, sequence (P45983 whole entry, species assumed): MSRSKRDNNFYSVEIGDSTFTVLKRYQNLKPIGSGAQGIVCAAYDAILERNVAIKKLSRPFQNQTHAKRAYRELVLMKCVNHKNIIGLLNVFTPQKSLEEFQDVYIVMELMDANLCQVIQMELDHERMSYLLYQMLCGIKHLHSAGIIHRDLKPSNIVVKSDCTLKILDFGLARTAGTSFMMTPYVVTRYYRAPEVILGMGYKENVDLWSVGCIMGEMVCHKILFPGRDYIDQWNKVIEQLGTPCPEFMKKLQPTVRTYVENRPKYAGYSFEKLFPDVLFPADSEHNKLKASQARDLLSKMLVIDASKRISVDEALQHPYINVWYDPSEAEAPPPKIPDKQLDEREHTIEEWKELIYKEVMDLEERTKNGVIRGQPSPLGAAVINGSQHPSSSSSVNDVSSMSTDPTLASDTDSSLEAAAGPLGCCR
JNK2, sequence (P45984 whole entry, species assumed): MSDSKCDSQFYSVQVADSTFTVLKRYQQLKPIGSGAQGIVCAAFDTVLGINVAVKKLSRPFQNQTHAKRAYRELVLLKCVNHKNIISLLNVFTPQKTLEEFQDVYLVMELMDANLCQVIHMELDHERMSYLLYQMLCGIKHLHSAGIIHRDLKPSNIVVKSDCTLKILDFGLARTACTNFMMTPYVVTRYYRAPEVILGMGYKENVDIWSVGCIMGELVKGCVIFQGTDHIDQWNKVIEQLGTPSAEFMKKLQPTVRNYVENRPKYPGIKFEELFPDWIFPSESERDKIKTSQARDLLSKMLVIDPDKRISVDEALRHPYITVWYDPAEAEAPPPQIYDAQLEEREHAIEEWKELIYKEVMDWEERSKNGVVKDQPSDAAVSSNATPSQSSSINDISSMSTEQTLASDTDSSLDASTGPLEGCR

SMILES | IC50 [1] | IC50 [2] | IC50 [3]
O=C(Cn1c(=O)ccc2cnccc21)Nc1ccsc1-c1cscn1 [2-(2-oxo-1,6-naphthyridin-1(2H)-yl)-N-(2-(thiazol-4-yl)thiophen-3-yl)acetamide] | < 100 nM | – | –
O=C(Cn1c(=O)ccc2cc(C(F)(F)F)ccc21)Nc1ccsc1-c1cscn1 [2-(2-oxo-6-(trifluoromethyl)quinolin-1(2H)-yl)-N-(2-(thiazol-4-yl)thiophen-3-yl)acetamide] | < 100 nM | < 100 nM | –
COc1ccc(CC(=O)Nc2ccsc2-c2c[nH]c(C)n2)cc1 [2-(4-methoxyphenyl)-N-(2-(2-methyl-1H-imidazol-4-yl)thiophen-3-yl)acetamide] | > 10000 nM | > 10000 nM | –
COc1ccc(CC(=O)Nc2ccsc2N2CCOC2=O)cc1 [2-(4-methoxyphenyl)-N-(2-(2-oxooxazolidin-3-yl)thiophen-3-yl)acetamide] | – | > 10000 nM | –
COc1ccc(CC(=O)Nc2ccsc2-c2nc(-c3ccncc3)n[nH]2)cc1 [2-(4-methoxyphenyl)-N-(2-(3-(pyridin-4-yl)-1H-1,2,4-triazol-5-yl)thiophen-3-yl)acetamide] | – | > 10000 nM | –
COc1ccc(CC(=O)Nc2ccsc2-c2nc(C(F)(F)F)n[nH]2)cc1 [2-(4-methoxyphenyl)-N-(2-(3-(trifluoromethyl)-1H-1,2,4-triazol-5-yl)thiophen-3-yl)acetamide] | – | – | 10000 to 50000 nM
COc1ccc(CC(=O)Nc2ccsc2-c2nc(C)n[nH]2)cc1 [2-(4-methoxyphenyl)-N-(2-(3-methyl-1H-1,2,4-triazol-5-yl)thiophen-3-yl)acetamide] | – | – | 100 to 10000 nM
O=C(Cc1cccc2ncsc12)Nc1scc(Br)c1-c1ncn[nH]1 [2-(benzo[d]thiazol-7-yl)-N-(4-bromo-3-(1H-1,2,4-triazol-5-yl)thiophen-2-yl)acetamide] | < 100 nM | < 100 nM | –
Cc1nc(-c2sccc2NC(=O)Cc2cccc3ccccc23)n(C)n1 [N-(2-(1,3-dimethyl-1H-1,2,4-triazol-5-yl)thiophen-3-yl)-2-(naphthalen-1-yl)acetamide] | > 10000 nM | > 10000 nM | –
Cn1ccnc1-c1sccc1NC(=O)Cc1cccc2ccccc12 [N-(2-(1-methyl-1H-imidazol-2-yl)thiophen-3-yl)-2-(naphthalen-1-yl)acetamide] | > 10000 nM | > 10000 nM | –
Cn1ccc(-c2sccc2NC(=O)Cc2cccc3ccccc23)n1 [N-(2-(1-methyl-1H-pyrazol-3-yl)thiophen-3-yl)-2-(naphthalen-1-yl)acetamide] | > 10000 nM | > 10000 nM | –
COc1ccc(CC(=O)Nc2ccsc2-n2cncn2)cc1 [N-(2-(1H-1,2,4-triazol-1-yl)thiophen-3-yl)-2-(4-methoxyphenyl)acetamide] | > 10000 nM | > 10000 nM | –
O=C(Cc1cccc2ccccc12)Nc1ccsc1-n1ccnc1 [N-(2-(1H-imidazol-1-yl)thiophen-3-yl)-2-(naphthalen-1-yl)acetamide] | – | 100 to 10000 nM | –
COc1ccc(CC(=O)Nc2ccsc2-c2c[nH]cn2)cc1 [N-(2-(1H-imidazol-4-yl)thiophen-3-yl)-2-(4-methoxyphenyl)-acetamide] | > 10000 nM | > 10000 nM | –
COc1ccc(CC(=O)Nc2ccsc2-n2cccn2)cc1 [N-(2-(1H-pyrazol-1-yl)thiophen-3-yl)-2-(4-methoxyphenyl)-acetamide] | > 10000 nM | > 10000 nM | –
Cc1nc(-c2sccc2NC(=O)CN2C(=O)CCc3ccccc32)c[nH]1 [N-(2-(2-methyl-1H-imidazol-4-yl)thiophen-3-yl)-2-(2-oxo-3,4-dihydroquinolin-1(2H)-yl)acetamide] | > 10000 nM | > 10000 nM | –
COc1ccc(CC(=O)Nc2ccsc2-n2nccn2)cc1 [N-(2-(2H-1,2,3-triazol-2-yl)thiophen-3-yl)-2-(4-methoxyphenyl)acetamide] | 100 to 10000 nM | 100 to 10000 nM | –
COc1ccc(CC(=O)Nc2ccsc2-c2nnc(C(C)C)o2)cc1 [N-(2-(5-isopropyl-1,3,4-oxadiazol-2-yl)thiophen-3-yl)-2-(4-methoxyphenyl)acetamide] | > 10000 nM | > 10000 nM | –
O=C(Cn1c(=O)ccc2cc(F)c(F)cc21)Nc1sccc1-c1ncon1 [N-(3-(1,2,4-oxadiazol-3-yl)thiophen-2-yl)-2-(6,7-difluoro-2-oxoquinolin-1(2H)-yl)acetamide] | < 100 nM | – | –
COCn1nnnc1-c1ccsc1NC(=O)Cc1ccc(OC)cc1 [N-(3-(1-(methoxymethyl)-1H-tetrazol-5-yl)thiophen-2-yl)-2-(4-methoxyphenyl)acetamide] | 100 to 10000 nM | 100 to 10000 nM | –

Other lines, results leading:

IC50 [1] | IC50 [2] | IC50 [3] | SMILES
< 100 nM | – | – | O=C(CN1C(=O)CCc2ccccc21)Nc1sccc1-c1ncn[nH]1 [N-(3-(1H-1,2,4-triazol-5-yl)thiophen-2-yl)-2-(2-oxo-3,4-dihydroquinolin-1(2H)-yl)acetamide]
< 100 nM | < 100 nM | – | O=C(Cc1cccc2cnccc12)Nc1scnc1-c1cscn1 [N-(4,4′-bithiazol-5-yl)-2-(isoquinolin-5-yl)acetamide]
< 100 nM | < 100 nM | – | O=C(Cc1cccc2ncc(C(F)(F)F)cc12)Nc1scc(Br)c1-c1nc[nH]n1 [N-(4-bromo-3-(1H-1,2,4-triazol-3-yl)thiophen-2-yl)-2-(3-(trifluoromethyl)quinolin-5-yl)acetamide]
< 100 nM | – | – | O=C(Cc1cccc2cc(F)cnc12)Nc1scc(Br)c1-c1nc[nH]n1 [N-(4-bromo-3-(1H-1,2,4-triazol-3-yl)thiophen-2-yl)-2-(3-fluoroquinolin-8-yl)acetamide]
< 100 nM | < 100 nM | – | O=C(Cn1c(=O)ccc2c(C(F)(F)F)cccc21)Nc1scc(Br)c1-c1ncn[nH]1 [N-(4-bromo-3-(1H-1,2,4-triazol-5-yl)thiophen-2-yl)-2-(2-oxo-5-(trifluoromethyl)quinolin-1(2H)-yl)acetamide]
< 100 nM | – | – | O=C(Cc1cc2ncccc2cc1F)Nc1scc(Br)c1-c1ncn[nH]1 [N-(4-bromo-3-(1H-1,2,4-triazol-5-yl)thiophen-2-yl)-2-(6-fluoroquinolin-7-yl)acetamide]
< 100 nM | – | – | Cc1cn2c(CC(=O)Nc3scc(Br)c3-c3ncn[nH]3)csc2n1 [N-(4-bromo-3-(1H-1,2,4-triazol-5-yl)thiophen-2-yl)-2-(6-methylimidazo[2,1-b]thiazol-3-yl)acetamide]
< 100 nM | < 100 nM | – | O=C(Cc1cc(F)cc2ncccc12)Nc1scc(Br)c1-c1ncn[nH]1 [N-(4-bromo-3-(1H-1,2,4-triazol-5-yl)thiophen-2-yl)-2-(7-fluoroquinolin-5-yl)acetamide]
< 100 nM | < 100 nM | – | O=C(Cc1ccc(F)c2ncccc12)Nc1scc(Br)c1-c1ncn[nH]1 [N-(4-bromo-3-(1H-1,2,4-triazol-5-yl)thiophen-2-yl)-2-(8-fluoroquinolin-5-yl)acetamide]
< 100 nM | – | – | O=C(Cc1cccc2nccn12)Nc1scc(Br)c1-c1ncn[nH]1 [N-(4-bromo-3-(1H-1,2,4-triazol-5-yl)thiophen-2-yl)-2-(imidazo[1,2-a]pyridin-5-yl)acetamide]
< 100 nM | < 100 nM | – | O=C(Cc1cccc2ccncc12)Nc1scc(Br)c1-c1ncn[nH]1 [N-(4-bromo-3-(1H-1,2,4-triazol-5-yl)thiophen-2-yl)-2-(isoquinolin-8-yl)acetamide]
< 100 nM | – | – | O=C(CN1C(=O)C(F)(F)c2ccccc21)Nc1scc(Br)c1-c1nnc[nH]1 [N-(4-bromo-3-(4H-1,2,4-triazol-3-yl)thiophen-2-yl)-2-(3,3-difluoro-2-oxoindolin-1-yl)acetamide]
< 100 nM | < 100 nM | – | O=C(Cc1ccnc2ccccc12)Nc1scc(Br)c1-c1nnc[nH]1 [N-(4-bromo-3-(4H-1,2,4-triazol-3-yl)thiophen-2-yl)-2-(quinolin-4-yl)acetamide]
< 100 nM | < 100 nM | – | O=C(CN1C(=O)CCc2ncccc21)Nc1scc(Br)c1-c1nccs1 [N-(4-bromo-3-(thiazol-2-yl)thiophen-2-yl)-2-(2-oxo-3,4-dihydro-1,5-naphthyridin-1(2H)-yl)acetamide]
< 100 nM | < 100 nM | – | CN1CCN(CCCn2cnc(-c3c(Cl)csc3NC(=O)Cn3c(=O)ccc4cc(C(F)(F)F)ccc43)n2)CC1 [N-(4-chloro-3-(1-(3-(4-methylpiperazin-1-yl)propyl)-1H-1,2,4-triazol-3-yl)thiophen-2-yl)-2-(2-oxo-6-(trifluoromethyl)quinolin-1(2H)-yl)acetamide]
< 100 nM | – | – | O=C(Cc1ccc(C(F)(F)F)c2ncccc12)Nc1scc(Cl)c1-c1ncn[nH]1 [N-(4-chloro-3-(1H-1,2,4-triazol-5-yl)thiophen-2-yl)-2-(8-(trifluoromethyl)quinolin-5-yl)acetamide]
< 100 nM | < 100 nM | – | CCc1n[nH]c(-c2c(Cl)csc2NC(=O)CN2C(=O)CCc3ncccc32)n1 [N-(4-chloro-3-(3-ethyl-1H-1,2,4-triazol-5-yl)thiophen-2-yl)-2-(2-oxo-3,4-dihydro-1,5-naphthyridin-1(2H)-yl)acetamide]
< 100 nM | – | – | CC(C)c1n[nH]c(-c2c(Cl)csc2NC(=O)CN2C(=O)CCc3ncccc32)n1 [N-(4-chloro-3-(3-isopropyl-1H-1,2,4-triazol-5-yl)thiophen-2-yl)-2-(2-oxo-3,4-dihydro-1,5-naphthyridin-1(2H)-yl)acetamide]
< 100 nM | < 100 nM | – | N#Cc1csc(NC(=O)Cc2cccc3ncccc23)c1-c1cnccn1 [N-(4-cyano-3-(pyrazin-2-yl)thiophen-2-yl)-2-(quinolin-5-yl)acetamide]
< 100 nM | < 100 nM | – | Cc1n[nH]c(-c2c(C)csc2NC(=O)Cc2cccc3ncccc23)n1 [N-(4-methyl-3-(3-methyl-1H-1,2,4-triazol-5-yl)thiophen-2-yl)-2-(quinolin-5-yl)acetamide]
– | 100 to 10000 nM | – | Cc1nnc(-c2c(C)csc2NC(=O)Cc2ccc(-c3ccncc3)cc2)[nH]1 [N-(4-methyl-3-(5-methyl-4H-1,2,4-triazol-3-yl)thiophen-2-yl)-2-(4-(pyridin-4-yl)phenyl)acetamide]
